Values quoted from earlier work, collected in patent US20030087789A1, “Emulsion containing a plant extract, method for producing said emulsion and for obtaining a plant extract” (priority 2000, published 2003).

Columns and labels:
[1] = tested on: Escherichia coli; conditions: intestinal Escherichia coli
[2] = tested on: Salmonella typhi
[3] = tested on: Shigella flexneri
[4] = tested on: Staphylococcus aureus

C=C(C)[C@@H]1CC[C@]2(CO)CC[C@]3(C)[C@H](CC[C@@H]4[C@@]5(C)CC[C@H](O)C(C)(C)[C@@H]5CC[C@]43C)[C@@H]12 [betulin]
bacteriostatic and bactericidal effect [1]: bacteriostatic and bactericidal effect | bacteriostatic and bactericidal effect [2]: bacteriostatic and bactericidal effect | bacteriostatic and bactericidal effect [3]: bacteriostatic and bactericidal effect | bacteriostatic and bactericidal effect [4]: bacteriostatic and bactericidal effect | solubility in cold petroleum ether (cold petroleum ether (C5-C8 CH)): practically insoluble | solubility in dichloromethane, chloroform and cold organic solvents (dichloromethane, chloroform and cold organic solvents): only slightly soluble | solubility in pyridine and tetrahydrofuran (pyridine and tetrahydrofuran): soluble | solubility in water (water): practically insoluble | solubility in water or water-alcohol mixtures (water or water-alcohol mixtures (up to 60% alcohol)): insoluble
